Reference: patent US20100261877A1, “PROCESS FOR ISOLATING THERAPEUTIC PEPTIDES” (priority 2009, published 2010)
Where a SMILES comes first, the peptide text is derived from it. Bridges are numbered along the chain shown (N, C = ends).

Tests used:
[1] = test system: small bowel motility, fluid secretion, visceral pain; conditions: oral, mice and rats; cited from earlier work
[2] = Solubility of SEQ ID NO. 1 in aqueous ethanol solution; format: physicochemical
Description: The above general procedures were followed replacing isopropyl alcohol (IPA) with ethanol.
(§1) 1 that is able to be dissolved in the aqueous ethanol solution, depending on the v/v % ethanol:water. The very sharp increase in solubility between 50-70 ethanol was very unexpected and the discovery of this unexpected result allowed for the successful isolation of SEQ ID NO. 1 by precipitation which was necessary for a viable large manufacturing scale-up required for commercial production.

[3] = Solubility of SEQ ID NO. 1 in aqueous isopropanol solution; format: physicochemical
Description: as §1, with “in” for “in the”, “isopropanol” for “ethanol”, “isopropanol:water.” for “ethanol:water.”, “40-60% isopropanol” for “50-70 ethanol”

[4] = molecular target: T1, guanylate cyclase type C receptor (GCC) (Homo sapiens, UniProt P25092); conditions: in vitro, varying concentrations; cited from earlier work
T1 construct: endogenous in cells
T1 sequence (P25092 24-1073): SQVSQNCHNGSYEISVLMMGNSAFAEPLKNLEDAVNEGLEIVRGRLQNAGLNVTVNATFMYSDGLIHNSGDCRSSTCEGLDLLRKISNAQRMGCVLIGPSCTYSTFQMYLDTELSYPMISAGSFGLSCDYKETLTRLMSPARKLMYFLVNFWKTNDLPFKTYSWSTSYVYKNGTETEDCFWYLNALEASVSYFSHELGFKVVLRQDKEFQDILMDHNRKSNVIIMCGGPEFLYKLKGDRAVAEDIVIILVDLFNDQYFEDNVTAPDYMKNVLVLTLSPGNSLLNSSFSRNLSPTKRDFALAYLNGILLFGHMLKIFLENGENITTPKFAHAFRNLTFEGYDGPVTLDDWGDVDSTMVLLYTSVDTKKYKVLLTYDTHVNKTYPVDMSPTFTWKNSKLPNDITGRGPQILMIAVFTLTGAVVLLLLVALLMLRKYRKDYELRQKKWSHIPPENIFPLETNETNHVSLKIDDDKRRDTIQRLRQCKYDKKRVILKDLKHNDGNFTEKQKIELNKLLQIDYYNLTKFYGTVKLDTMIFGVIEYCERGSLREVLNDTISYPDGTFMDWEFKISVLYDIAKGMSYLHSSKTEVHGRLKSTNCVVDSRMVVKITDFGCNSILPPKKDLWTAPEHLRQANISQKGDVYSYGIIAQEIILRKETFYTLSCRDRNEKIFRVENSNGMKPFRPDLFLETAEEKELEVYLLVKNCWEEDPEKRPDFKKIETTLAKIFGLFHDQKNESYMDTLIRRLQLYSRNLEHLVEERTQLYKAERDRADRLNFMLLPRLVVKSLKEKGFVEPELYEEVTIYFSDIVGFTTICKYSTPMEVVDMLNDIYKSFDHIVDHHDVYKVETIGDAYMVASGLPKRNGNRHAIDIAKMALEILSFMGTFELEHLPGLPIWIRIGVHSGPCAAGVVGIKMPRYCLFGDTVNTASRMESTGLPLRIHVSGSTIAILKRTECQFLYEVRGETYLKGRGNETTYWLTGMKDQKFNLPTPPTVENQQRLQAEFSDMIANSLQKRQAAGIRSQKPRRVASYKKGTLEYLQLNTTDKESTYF

C[C@@H]1NC(=O)[C@@H]2CCCN2C(=O)[C@H](CC(N)=O)NC(=O)[C@@H]2CSSC[C@H](N)C(=O)N[C@H]3CSSC[C@H](NC1=O)C(=O)N[C@@H]([C@@H](C)O)C(=O)NCC(=O)N[C@H](C(=O)N[C@@H](Cc1ccc(O)cc1)C(=O)O)CSSC[C@H](NC(=O)[C@H](Cc1ccc(O)cc1)NC(=O)[C@H](CCC(=O)O)NC3=O)C(=O)N2 [SEQ ID No. 1, Cys-Cys-Glu-Tyr-Cys-Cys-Asn-Pro-Ala-Cys-Thr-Gly-Cys-Tyr] (H-CCEYCCNPACTGCY-OH; disulfide 1-6, 2-10, 5-13)
effects on small bowel motility, fluid secretion and visceral pain [1]: promising effects on increasing small bowel motility, fluid secretion and decreasing visceral pain | amount of SEQ ID NO. 1 able to be dissolved ([2]; EtOH 0 v/v % in water): 0.50 mg/mL | amount of SEQ ID NO. 1 able to be dissolved ([2]; EtOH 5 v/v % in water): 0.25 mg/mL | amount of SEQ ID NO. 1 able to be dissolved ([2]; EtOH 10 v/v % in water): 0.75 mg/mL | amount of SEQ ID NO. 1 able to be dissolved ([2]; EtOH 15 v/v % in water): 1.00 mg/mL | amount of SEQ ID NO. 1 able to be dissolved ([2]; EtOH 20 v/v % in water): 0.75 mg/mL | amount of SEQ ID NO. 1 able to be dissolved ([2]; EtOH 25 v/v % in water): 3.00 mg/mL | amount of SEQ ID NO. 1 able to be dissolved ([2]; EtOH 30 v/v % in water): 3.00 mg/mL | amount of SEQ ID NO. 1 able to be dissolved ([2]; EtOH 35 v/v % in water): 2.75 mg/mL | amount of SEQ ID NO. 1 able to be dissolved ([2]; EtOH 40 v/v % in water): 2.25 mg/mL | amount of SEQ ID NO. 1 able to be dissolved ([2]; EtOH 45 v/v % in water): 3.50 mg/mL | amount of SEQ ID NO. 1 able to be dissolved ([2]; EtOH 50 v/v % in water): 9.25 mg/mL | amount of SEQ ID NO. 1 able to be dissolved ([2]; EtOH 55 v/v % in water): 179.25 mg/mL | amount of SEQ ID NO. 1 able to be dissolved ([2]; EtOH 60 v/v % in water): 347.50 mg/mL | amount of SEQ ID NO. 1 able to be dissolved ([2]; EtOH 65 v/v % in water): 430.00 mg/mL | amount of SEQ ID NO. 1 able to be dissolved ([2]; EtOH 70 v/v % in water): 441.50 mg/mL | amount of SEQ ID NO. 1 able to be dissolved ([2]; EtOH 75 v/v % in water): 304.00 mg/mL | amount of SEQ ID NO. 1 able to be dissolved ([2]; EtOH 80 v/v % in water): 45.25 mg/mL | amount of SEQ ID NO. 1 able to be dissolved ([2]; EtOH 85 v/v % in water): 10.25 mg/mL | amount of SEQ ID NO. 1 able to be dissolved ([2]; EtOH 90 v/v % in water): 10.00 mg/mL | amount of SEQ ID NO. 1 able to be dissolved ([2]; EtOH 95 v/v % in water): 3.75 mg/mL | amount of SEQ ID NO. 1 able to be dissolved ([2]; EtOH 100 v/v %): 0.50 mg/mL | amount of SEQ ID NO. 1 able to be dissolved ([3]; IPA 0 v/v % in water): 1.3 mg/mL | amount of SEQ ID NO. 1 able to be dissolved ([3]; IPA 5 v/v % in water): 1.8 mg/mL | amount of SEQ ID NO. 1 able to be dissolved ([3]; IPA 10 v/v % in water): 2.3 mg/mL | amount of SEQ ID NO. 1 able to be dissolved ([3]; IPA 15 v/v % in water): 3.3 mg/mL | amount of SEQ ID NO. 1 able to be dissolved ([3]; IPA 20 v/v % in water): 4.3 mg/mL | amount of SEQ ID NO. 1 able to be dissolved ([3]; IPA 25 v/v % in water): 4.8 mg/mL | amount of SEQ ID NO. 1 able to be dissolved ([3]; IPA 30 v/v % in water): 6.0 mg/mL | amount of SEQ ID NO. 1 able to be dissolved ([3]; IPA 35 v/v % in water): 7.0 mg/mL | amount of SEQ ID NO. 1 able to be dissolved ([3]; IPA 40 v/v % in water): 13.8 mg/mL | amount of SEQ ID NO. 1 able to be dissolved ([3]; IPA 45 v/v % in water): 47.8 mg/mL | amount of SEQ ID NO. 1 able to be dissolved ([3]; IPA 50 v/v % in water): 120.3 mg/mL | amount of SEQ ID NO. 1 able to be dissolved ([3]; IPA 55 v/v % in water): 162.5 mg/mL | amount of SEQ ID NO. 1 able to be dissolved ([3]; IPA 60 v/v % in water): 138.5 mg/mL | amount of SEQ ID NO. 1 able to be dissolved ([3]; IPA 65 v/v % in water): 106.5 mg/mL | amount of SEQ ID NO. 1 able to be dissolved ([3]; IPA 70 v/v % in water): 65.7 mg/mL | amount of SEQ ID NO. 1 able to be dissolved ([3]; IPA 75 v/v % in water): 26.5 mg/mL | amount of SEQ ID NO. 1 able to be dissolved ([3]; IPA 80 v/v % in water): 19.0 mg/mL | amount of SEQ ID NO. 1 able to be dissolved ([3]; IPA 85 v/v % in water): 12.5 mg/mL | amount of SEQ ID NO. 1 able to be dissolved ([3]; IPA 90 v/v % in water): 9.0 mg/mL | amount of SEQ ID NO. 1 able to be dissolved ([3]; IPA 95 v/v % in water): 4.5 mg/mL | amount of SEQ ID NO. 1 able to be dissolved ([3]; IPA 100 v/v %): 0.3 mg/mL | cGMP in human intestinal cells [4]: increased cGMP
